From paper PMC7844219, “Antifibrotic effect of novel neutrophil gelatinase-associated lipocalin inhibitors in cardiac and renal disease models” (Scientific Reports, 2021)

Columns and labels:
mNGAL = target: T1, mNGAL (Mus musculus, UniProt P11672); experiment: mNGAL-induced gene expression in primary mouse kidney fibroblasts (RT-PCR); assay type: cell-based
T1 construct: purchased R&D Systems
T1 sequence (P11672 21-200): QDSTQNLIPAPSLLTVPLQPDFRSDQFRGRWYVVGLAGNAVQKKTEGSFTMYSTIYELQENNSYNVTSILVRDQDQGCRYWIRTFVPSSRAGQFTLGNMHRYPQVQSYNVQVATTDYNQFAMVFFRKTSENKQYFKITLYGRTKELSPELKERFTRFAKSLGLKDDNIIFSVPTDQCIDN
Description: Primary human cardiac fibroblasts (HCF) were obtained from Promocell (Heidelberg, Germany) and maintained in Fibroblast Media 3 following manufacturer’s instructions (Promocell). Cells were used between passages 5 and 7. Cells were stimulated with recombinant hNGAL (500 ng/mL, R&D Systems) or with TGFβ (10 ng/mL, R&D Systems) for 24 h. To assess cell proliferation the MTT test was used following provider’s instructions (Roche). For protein analysis. Primary Mouse Kidney Fibroblasts (MKF) were isolated from Wild Type (WT) mice. Briefly, 8 weeks old mice were sacrificed by cervical dislocation and kidneys were cleaned and rinsed in cold DPBS (Dulbecco's Phosphate-Buffered Saline). The renal cortex was minced and incubated in Dulbecco’s modified eagle medium/Nutrient mixture F-12 (DMEM/F12, Sigma) containing 1 mg/mL collagenase A (Roche) during 25 min at 37 °C. The digestion was inactivated by adding culture medium (DMEM/F12 + 10% FBS) then the cell suspension was passed through a 100-μm cell strainer. After centrifugation, the pellet (containing MKF) was diluted with culture medium then plated in 75 cm^2 culture flask. After 24 h MKF were washed with DPBS before replacement of fresh culture medium. Thereafter, culture medium was changed every 48 h. Once 70–80% confluent, MKF were trypsinized and plated in 12 or 6-well plates. For experimental use, MKF were starved with culture medium containing only 3% FBS. MKF were treated with mNGAL (500 ng/mL, R&D Systems) or with TGFβ (10 ng/mL, R&D Systems) for 6 h for gene expression analysis.
Frozen tissues (kidneys, heart) were homogenized in TRIzol (Life Technologies, Illinois, USA) using FastPrep beads (MP-Bio, CA, USA). cDNAs were generated using the Superscript II reverse transcriptase kit (Invitrogen,NY, USA), and qPCR was performed as previously described. Briefly, transcript levels were analysed in a CFX396 apparatus (Biorad). The reactions were performed in duplicate for each sample using the IQ SYBR Green supermix Kit (Biorad,CA, USA). […]

CKD mouse model = experiment: Chronic kidney disease (CKD) mouse model, 5/6 (subtotal) nephrectomy; assay type: in vivo; parameters: Plasma creatinine level: unit not given here; conditions: CKD mice
Description: Animals were housed in a climate-controlled facility with a 12-h/12-h light/dark cycle and provided free access to food and water. Experiments were approved by the Darwin ethics committee of Sorbonne University, and conducted according to the INSERM animal care and use committee guidelines. The NGAL inhibitor GP1 was incorporated in regular chow (A04, Safe, Augy, France) at the dose of 625 mg GP1/kg of chow to achieve a low dose of 100 mg/kg/day of GP1 administered to the mice (based on a daily consumption of 4 g of chow).
LV hemodynamic was assessed as described previously. Briefly, mice were anesthetized (chloral 320 mg/kg, IP) and the carotid artery cannulated with a pressure–volume catheter (SPR839, Millar-Instruments, USA) and the catheter was advanced into the LV. Pressure–volume loops were obtained at baseline and during loading by gently occluding the abdominal aorta. LV end-systolic and end-diastolic pressures, dP/dtmax/min, LV relaxation constant tau and were measured/calculated with IOX software (EMKA, France). Systolic BP was measured by tail-cuff plethysmography in trained conscious mice at weeks 8–10 using a BP2000 Visitech model. BP was measured every day in the same room at the same hour for 5 consecutive days. The BP measurements (expressed as mmHg) presented are the averages of the last 3 days.
Chronic kidney disease (CKD) was induced by subtotal nephrectomy in 8-weeks-old male mice (25–26 g). All surgeries were performed under ketamine/xylazine anaesthesia. Briefly, the left kidney was exposed, and the upper and lower poles were tied with a poly-glycolic acid suture line. The peritoneum and skin were then sutured, and the animals were returned to their individual cages. After 1 week of recovery, the second kidney was removed. Removal of the second kidney represents T0. Sham mice were subjected to the same surgical procedures but neither renal poles nor the right kidney were removed. Mice were monitored for any sign of distress, and those observed to be experiencing severe, unrelievable pain were euthanized. Renal failure was assessed by the measure of plasma creatinine and urea with an automatic analyser (Konelab 20i; Thermo Fisher Scientific, Vernon Hills, IL) at weeks 4 and 8 post-Nx.
In the MI model, heart was harvested after hemodynamics and the atria and the ventricles were separated and weighed individually. A section of the left ventricle was immersed in Bouin fixative solution. In the CKD model, kidneys were harvested and a section was immersed in paraformaldehyde fixative solution. After fixation, the sections were dehydrated and embedded in paraffin. From these sections, 5-μm thick histologic slices were obtained and were stained with Sirius Red. For the measurement of cardiac or renal collagen density, slides were examined and photographed under a light microscope (Zeiss) at 40× magnification. Collagen content was calculated as percentage of collagen area to total area of the image. Perivascular collagen was excluded from the analysis. For tubular lesions scoring, kidney slides were stained with Periodic Acid-Schiff kit (Sigma) and the score of tubules with injury (epithelial cell necrosis and detachment, and tubular dilation) was analyzed blinded to the experimental groups.
Frozen tissues (kidneys, heart) were homogenized in TRIzol (Life Technologies, Illinois, USA) using FastPrep beads (MP-Bio, CA, USA). cDNAs were generated using the Superscript II reverse transcriptase kit (Invitrogen,NY, USA), and qPCR was performed as previously described. Briefly, transcript levels were analysed in a CFX396 apparatus (Biorad). The reactions were performed in duplicate for each sample using the IQ SYBR Green supermix Kit (Biorad,CA, USA). To normalize gene expression, the geometric mean of multiple internal reference genes were used (RS16, Ubc, Hprt and Gapdh for mice experiments). Values in control conditions were set as 1 for each gene. The sequences of the specific primers are detailed in Table S8.

SMILES: CC(=O)c1cccc(S(=O)(=O)NCc2ccccc2-n2cccn2)c1 [GPZ614741]
- NGAL-induced collagen I expression (mNGAL; 1 µM, mouse kidney fibroblasts, Fig. S4): prevented
- mNGAL-induced expression of profibrotic markers (Col I, fibronectin, αSMA) (mNGAL; 10 µM, MKF, mRNA, Fig. 3A): inhibited
- mNGAL-induced expression of inflammatory markers (IL6, MCP1) (mNGAL; 10 µM, MKF, mRNA, Fig. 3B): inhibited
- KW/TL (kidney weight/tibia length) (CKD mouse model; GP1 100 mg/kg/day, two months, CKD untreated 11.5 ± 0.42): 11.3 ± 0.23 mg/mm
- Plasma urea level (CKD mouse model; GP1 100 mg/kg/day, two months, CKD untreated 15.2 ± 0.36): 16.74 ± 1.86 mM
- Plasma creatinine level (CKD mouse model; GP1 100 mg/kg/day, two months, CKD untreated 21.5 ± 1.45): 20.4 ± 1.54
- SBP (systolic blood pressure) (CKD mouse model; GP1 100 mg/kg/day, two months, CKD untreated 139.3 ± 2.22): 122.1 ± 2.58 mmHg
- Increased expression of profibrotic markers (Col I, fibronectin, αSMA) (CKD mouse model; kidney mRNA, Fig. 4C): blunted
- Functional parameters: plasma levels of urea or creatinine, in words (CKD mouse model; one and two months after CKD induction): no impact
- Increase in blood pressure, in words (CKD mouse model; two months of GP1): prevented the increase
- Renal tubulointerstitial fibrosis (Sirius red) (CKD mouse model; two months of GP1, Fig. 4A): strong antifibrotic effect
- Tubular injury (tubular lesion scoring, PAS) (CKD mouse model; × 3.1 in CKD vs. Sham, Fig. 4B): prevented
